Assay results published in paper PMC10588032 (Journal of the American Chemical Society, 2023).
Values belong to the molecule of their own block, whether it stands above or below them. *1 amine or outer side, *2 acyl side, *3 side chain or, on linkers, in order; H or OH if unused. Where a SMILES comes first, the peptide text is derived from it. [ ]: non-standard residue; d: D form. X1 = CC(C)C[C@@H](CCC(=O)[*:2])N[*:1]; β3hN = NC(=O)C[C@H](N)CC(=O)O

Key:
[1] = test system: PTHR1; test: PTHR1 cAMP washout assay; assay type: cell-based; settings: 10 nM agonist for 20 min, then PTHR1 antagonist PTH(7-34) introduced
[2] = target: T1, NLuc-PTHR1 (Homo sapiens, UniProt Q03431); test: NLuc-PTHR1 competition binding
T1 sequence (Q03431 27-593): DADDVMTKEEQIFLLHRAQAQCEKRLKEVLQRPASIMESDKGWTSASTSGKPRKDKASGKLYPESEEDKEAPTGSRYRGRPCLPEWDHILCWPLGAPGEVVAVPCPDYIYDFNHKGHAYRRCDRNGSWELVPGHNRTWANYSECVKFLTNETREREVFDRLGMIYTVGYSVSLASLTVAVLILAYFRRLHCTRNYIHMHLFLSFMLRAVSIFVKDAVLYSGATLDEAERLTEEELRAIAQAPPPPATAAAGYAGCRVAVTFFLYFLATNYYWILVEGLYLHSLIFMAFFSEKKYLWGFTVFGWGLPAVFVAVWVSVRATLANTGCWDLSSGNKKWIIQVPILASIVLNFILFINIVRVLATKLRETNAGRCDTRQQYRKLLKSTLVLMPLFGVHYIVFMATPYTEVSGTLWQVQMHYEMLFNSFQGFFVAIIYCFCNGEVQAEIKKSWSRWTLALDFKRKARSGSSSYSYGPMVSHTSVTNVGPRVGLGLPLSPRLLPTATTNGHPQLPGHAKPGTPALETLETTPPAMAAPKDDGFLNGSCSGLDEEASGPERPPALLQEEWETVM

[3] = target: T2, PTHR1 (Homo sapiens, UniProt Q03431); test: PTHR1 activation via cAMP production; assay type: cell-based
T2 sequence (Q03431 27-593): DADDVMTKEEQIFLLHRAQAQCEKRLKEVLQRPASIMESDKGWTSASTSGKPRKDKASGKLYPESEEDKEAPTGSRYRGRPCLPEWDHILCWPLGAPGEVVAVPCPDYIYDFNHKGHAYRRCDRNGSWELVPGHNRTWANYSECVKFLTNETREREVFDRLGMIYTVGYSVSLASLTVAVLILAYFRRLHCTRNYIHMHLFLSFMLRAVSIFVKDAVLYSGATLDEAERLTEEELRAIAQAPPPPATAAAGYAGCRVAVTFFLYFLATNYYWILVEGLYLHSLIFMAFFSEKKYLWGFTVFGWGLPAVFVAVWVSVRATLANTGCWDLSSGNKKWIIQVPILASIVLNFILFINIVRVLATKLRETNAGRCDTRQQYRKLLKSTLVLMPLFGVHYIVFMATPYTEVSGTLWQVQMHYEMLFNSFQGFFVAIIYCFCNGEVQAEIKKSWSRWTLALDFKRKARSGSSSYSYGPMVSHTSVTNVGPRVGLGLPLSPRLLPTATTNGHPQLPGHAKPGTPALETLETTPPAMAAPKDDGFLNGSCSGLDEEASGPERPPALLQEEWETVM

[4] = target: T2, PTHR1; test: β-arrestin-2 recruitment to the PTHR1; assay type: cell-based
[5] = target: PTHR2 (Homo sapiens, UniProt P49190); test: PTHR2 activation via cAMP production; assay type: cell-based
PTHR2, sequence (P49190 25-550, species assumed): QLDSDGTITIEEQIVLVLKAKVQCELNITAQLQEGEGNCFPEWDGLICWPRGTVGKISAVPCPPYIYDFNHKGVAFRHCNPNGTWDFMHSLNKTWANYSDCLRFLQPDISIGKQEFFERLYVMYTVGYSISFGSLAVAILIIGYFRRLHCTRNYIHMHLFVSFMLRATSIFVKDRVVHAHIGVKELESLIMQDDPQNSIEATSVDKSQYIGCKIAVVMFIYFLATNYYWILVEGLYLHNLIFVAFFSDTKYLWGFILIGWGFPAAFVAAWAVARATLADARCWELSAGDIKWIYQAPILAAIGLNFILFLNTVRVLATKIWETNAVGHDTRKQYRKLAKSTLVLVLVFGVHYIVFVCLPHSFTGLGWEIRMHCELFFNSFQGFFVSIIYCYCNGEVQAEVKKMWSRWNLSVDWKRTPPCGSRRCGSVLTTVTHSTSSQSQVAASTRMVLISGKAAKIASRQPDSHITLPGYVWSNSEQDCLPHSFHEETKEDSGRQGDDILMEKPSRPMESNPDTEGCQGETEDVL

[6] = target: T2, PTHR1; test: β-arrestin-1 recruitment to the PTHR1; assay type: cell-based
[7] = target: NLuc-PTHR1 (UniProt Q03431)
[8] = target: NLuc-PTHR1 (UniProt Q03431); test: FRET or BRET
[9] = target: T3, PTHR1-RLuc8 (UniProt Q03431 27-593); test: FRET or BRET
T3 sequence (looked up): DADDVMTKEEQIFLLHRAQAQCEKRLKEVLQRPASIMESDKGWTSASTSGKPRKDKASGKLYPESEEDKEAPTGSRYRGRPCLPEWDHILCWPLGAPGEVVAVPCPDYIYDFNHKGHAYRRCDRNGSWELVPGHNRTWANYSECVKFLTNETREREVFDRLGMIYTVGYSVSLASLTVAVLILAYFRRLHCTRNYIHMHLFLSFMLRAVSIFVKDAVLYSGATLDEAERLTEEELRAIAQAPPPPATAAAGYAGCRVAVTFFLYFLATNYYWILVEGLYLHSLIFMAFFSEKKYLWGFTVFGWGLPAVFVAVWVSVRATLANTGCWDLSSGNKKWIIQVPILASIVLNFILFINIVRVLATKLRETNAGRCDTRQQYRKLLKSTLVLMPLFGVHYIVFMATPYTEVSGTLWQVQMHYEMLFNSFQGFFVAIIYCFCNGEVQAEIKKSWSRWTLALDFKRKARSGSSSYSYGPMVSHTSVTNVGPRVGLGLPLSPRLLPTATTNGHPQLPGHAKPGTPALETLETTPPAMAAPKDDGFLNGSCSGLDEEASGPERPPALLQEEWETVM

IC50 [2]: 126 nM
EC50 [3]: 2.51 nM
PTHR1 cAMP Production % Max ([3]; maximal response normalized against PTH(1-34), 4 independent experiments, ± SEM): 116 ± 6%
EC50 [4]: 100 nM
PTHR1 β-arrestin-2 Recruitment % Max ([4]; normalized against PTH(1-34), ≥3 independent experiments, ± SEM): 21 ± 4%
EC50 [5]: 31.6 nM
PTHR2 cAMP Production % Max ([5]; maximal response normalized against PTH(1-34), ≥4 independent experiments, ± SEM): 76 ± 3%
EC50 [6]: 100 nM
PTHR1 β-arrestin-1 Recruitment % Max ([6]; normalized against PTH(1-34), ≥4 independent experiments, ± SEM): 27 ± 3%
Molecule: CC[C@H](C)[C@H](NC(=O)[C@H](CCC(=O)O)NC(=O)[C@H](CO)NC(=O)[C@@H](NC(=O)[C@@H](N)CO)C(C)C)C(=O)N[C@@H](CCC(N)=O)C(=O)N[C@@H](CC(C)C)C(=O)N[C@@H](CCSC)C(=O)N[C@@H](Cc1c[nH]cn1)C(=O)N[C@@H](CC(N)=O)CC(=O)N[C@H](CCC(=O)N[C@@H](CCCCN)C(=O)N[C@@H](Cc1c[nH]cn1)C(=O)N[C@@H](CC(C)C)C(=O)N[C@@H](CC(N)=O)C(=O)N[C@@H](CO)C(=O)N[C@@H](CCSC)C(=O)N[C@@H](CCC(=O)O)C(=O)N[C@@H](CCCNC(=N)N)C(=O)N[C@H](C(=O)N[C@@H](CCC(=O)O)C(=O)N[C@@H](Cc1c[nH]c2ccccc12)C(=O)N[C@@H](CC(C)C)C(=O)N[C@@H](CCCNC(=N)N)C(=O)N[C@@H](CCCCN)C(=O)N[C@@H](CCCCN)C(=O)N[C@@H](CC(C)C)C(=O)N[C@@H](CCC(N)=O)C(=O)N[C@@H](CC(=O)O)C(=O)N[C@H](C(=O)N[C@@H](Cc1c[nH]cn1)C(=O)N[C@@H](CC(N)=O)C(=O)N[C@@H](Cc1ccccc1)C(N)=O)C(C)C)C(C)C)CC(C)C [Peptide 1] (H-SVSEIQLMH[β3hN][X1]KHLNSMERVEWLRKKLQDVHNF-NH2; N-terminus assumed)
AUC of post-washout PTHR1 cAMP, lower compared to PTH(1-34) [1]: ~ 40%

PTHR1 cAMP production, % Max [7]: 102%
IC50 [8]: 22 nM
Molecule: PTH(1-34) (peptide)

EC50 of PTH(1-34) for recruitment [9]: 7.2 nM
EC50 of peptide 1 for recruitment [9]: 100 nM
EC50 of peptide 2 for recruitment [9]: 190 nM
B1: β-arrestin-1-Venus (natural protein, UniProt P49407 1-418, looked up)
chain: MGDKGTRVFKKASPNGKLTVYLGKRDFVDHIDLVDPVDGVVLVDPEYLKERRVYVTLTCAFRYGREDLDVLGLTFRKDLFVANVQSFPPAPEDKKPLTRLQERLIKKLGEHAYPFTFEIPPNLPCSVTLQPGPEDTGKACGVDYEVKAFCAENLEEKIHKRNSVRLVIRKVQYAPERPGPQPTAETTRQFLMSDKPLHLEASLDKEIYYHGEPISVNVHVTNNTNKTVKKIKISVRQYADICLFNTAQYKCPVAMEEADDTVAPSSTFCKVYTLTPFLANNREKRGLALDGKLKHEDTNLASSTLLREGANREILGIIVSYKVKVKLVVSRGGLLGDLASSDVAVELPFTLMHPKPKEEPPHREVPENETPVDTNLIELDTNDDDIVFEDFARQRLKGMKDDKEEEEDGTGSPQLNNR
